Paper PMC8750417, “Intracellular Amplifiers of Reactive Oxygen Species Affecting Mitochondria as Radiosensitizers” (Cancers, 2021)
“And” between values parts separate entries of the source, which are not always exact repeats. Identical values can stand only once. Like-named read-outs stand apart in the source and are kept apart here.

Experiments:
A2780 cells [1] = test: Cell viability, MTT assay, A2780; assay type: cell-based, human
Procedure: (§1) Determination of viability of cells in the presence of prodrugs and controls A2780 and BL-2 cells The medium was removed, and the cells were washed two times with DPBS, trypsinated, and resuspended in RPMI 1640 medium (A2780) supplemented with 5% FBS (for 24 h and 48 h assay) or 10% FBS (for 96 h assay) , 1% L-glutamine, and 1% penicillin/streptomycin.
(§2) A2780 cells: This suspension was spread in the wells of a 96 -well microtiter plate (25000 cells for A2780 per well per 100 μL) and left standing at 37 °C in the chamber filled with CO2 (5%) for overnight. Stock solutions of prodrugs of different concentra tions (1 μL, solvent dmso, final concentrations in wells were 2, 5, 10, 30, 50 μM) were added to the wells and incubated for specific periods of time. Four experiments were conducted for each concentration of the prodrug. Finally, 3-(4,5-dimethylthiazol-2-yl)-2,5-diphenyltetrazolium bromide (MTT, 20 μL of the solution prepared by dissolving MTT (5 mg) in DPBS buffer (1 mL)) was added to each well, incubated for 3 h, treated with sodium dodecyl sulfate (SDS) solution (90 μL, 10% solution in 0.01 M aqueous HC l), and incubated overnight. Afterward, the intensity of the absorbance at 590 nm was measured.
(§3) MTT is converted in live cells to blue dye with the absorbance maximum λ max at 590 nm.
The absorbance at 690 nm was taken as a baseline value. The baseline corrected absorbance at 590 nm (A(590 nm) − A(690 nm)) was applied to calculate the relative number of viable cells. IC50 values were determined by fitting the experimental data expressing the number of viable cells (%, Y-axis) versus drug concentration (μM, X-axis) with a line curve and the X-axis value corresponding to 50% viability was considered as IC50 value according to the line curve (Figure S50, Table S2). […]

A2780 cells [2] = test: Mitochondrial ROS (MitoSOX, flow cytometry), A2780; assay type: cell-based, human
Procedure: Monitoring mitochondrial ROS (mROS)
A2780 cells were seeded in RPMI 1640 medium containing 5% FBS, 1% L-glutamine and 1% penicillin/streptomycin in a 96-well microtiter plate (total volume 0.1 mL) at a density of 250 cells/µL one day before the experiment. On the day of the experiment, the cells were washed with DPBS buffer and a fresh portion of RPMI 1640 medium containing 5% FBS, 1% L-glutamine and 1% penicillin/streptomycin (100 µL) was added followed by addition of compounds (1 μL of stock solutions in DMSO, final concentration of the prodrugs was 5, 10 μM and 30 μM) or carrier only (DMSO, 1 µL, final concentration 1 %, v/v) and incubation for 1 or 2 h in the dark chamber filled with CO 2 (5%) at 37 °C. After that, the cells were washed twice with DPBS buffer and the medium was replaced with HBSS (Hanks' Balanced Salt solution, 50 μL) containing MitoSOX (Red Mitochondrial Superoxide Indicator, Thermo-Fisher, Catalog number M36008, final concentration 5 µM obtained by adding 0.5 µ L of the 0.5 mM stock solution of MitoSOX in DMSO to the HBSS ) […]
(1 picture or pasted object on this page, not shown here) […]
and the cells were incubated in the dark chamber filled with CO2 (5%) at 37 °C for 20 min.
Next, the cells were detached from the culture dish using trypsin/EDTA (0.025%/0.01%, v/v, 50 µL). The cells were re-suspended in RPMI 1640 medium containing 5% FBS, 1% L-glutamine and 1% penicillin/streptomycin (100 µL). Finally, the fluorescence of live cells (λex = 488 nm, λem = 578 nm) in the suspensions was determined by using flow cytometry

human fibroblasts (HF) = test: Cytotoxicity MTT assay, human fibroblasts; assay type: cell-based; details: read-out: 50% cell survival (EC50)
Procedure: Study of synergy of prodrugs with radiotherapy for SAS and FaDu cells
Optimization of concentration of prodrugs and controls / MTT assay
The MTT assay was also applied to assess the impact of various drugs (0.01-100 µM) on the viability of the two human head and neck squamous carcinoma cell (HNSCC) lines SAS and FaDu as well as retinal pigment epithelial ARPE-19 cells and human fibroblasts (HF). Cells were seeded into 96-well plates at concentrations of 4000 and 2000 cells per […]
h before exposure to the drugs. All drug dilutions were prepared from 20 mM stock solutions in DMSO. The final DMSO concentration was set to 0.5% in all sample s including control. After completion of the treatment, the wells were processed according to the routine MTT protocol as described above; the formazan absorbance was then measured on a Biotek Epoch Microplate Spectrophotometer at 590 nm and corrected for the background signal at 620 nm. N≥3 independent experiments were performed for each drug candidate, cell type and treatment interval. Cell survival was recorded as function of the drug concentration, and dose-response curves were fitted with the Boltzmann equation where appropriate. We calculated the half-maximal response (EC50) as well as the EC20 (80% survival) according to the line curve (see Tables S6-S8). EC20-values were used as a basis to select the compound-specific non-toxic drug concentrations for combination with radiotherapy.

BL-2 cells = test: Cell viability, MTT assay, BL-2; assay type: cell-based, human
Procedure: as §1, §2, §3
The absorbance at 690 nm was taken as a baseline value. The baseline corrected absorbance at 590 nm (A(590 nm) − A(690 nm)) was applied to calculate the relative number of viable cells. IC50 values were determined by fitting the experimental data expressing the number of viable cells (%, Y-axis) versus drug concentration (μM, X-axis) with a line curve and the X-axis value corresponding to 50% viability was considered as IC50 value according to the line curve (Figure S50, Table S2).
BL-2 cells: The cells were centrifuged, the medium was removed, and the cells were washed two times with DPBS and re-suspended in RPMI 1640 medium containing 5% (48 h incubation) or 10% FBS (96 h incubation), 1% L-glutamine, and 1% penicillin/ streptomycin. This suspension was spread in the wells of a 96-well microtiter plate (50000 cells per well per 100 μL). Other steps were identical to those was described in determination of viability of adherent cells (given above) (Table S3).

## CC1(C)OB(c2ccc(COC(=O)N(Cc3cn(Cc4ccc(Cn5cc(Cc6ccccc6)nn5)cc4)nn3)[c-]3cccc3)cc2)OC1(C)C.[Fe+2].c1cc[cH-]c1 [2c]
A2780 cells [1]; A2780, 24 h
  cell viability at which the effect is saturated: 70%
A2780 cells [1]; A2780, 24 h incubation
  IC50: > 30 µM
A2780 cells [1]; A2780, 48 h
  cell viability at which the effect is saturated: 50%
A2780 cells [1]; A2780, 48 h incubation
  IC50: > 30 µM
A2780 cells [1]; A2780, 96 h
  cell viability at which the effect is saturated: 43%
A2780 cells [1]; A2780, 96 h incubation
  IC50: 4 ± 0.5 µM
A2780 cells [2]
  mitochondrial ROS (mROS) vs non-treated cells: significantly increased
Human fibroblasts (HF); 24h
  EC50: > 50 µM
Human fibroblasts (HF); 48h
  EC50: > 50 µM
BL-2 cells; BL-2, 48 h incubation
  IC50: 40.1 ± 6.4 µM
BL-2 cells; BL-2, 96 h incubation
  IC50: 5.7 ± 2.7 µM

## CC1(C)OB(c2ccc(COC(=O)N(Cc3cccc(CN4CCCCC4)c3)[c-]3cccc3)cc2)OC1(C)C.[Fe+2].c1cc[cH-]c1 [5b]
A2780 cells [1]; A2780, 48 h incubation
  IC50: 7 ± 2 µM
A2780 cells [1]; A2780, 96 h incubation
  IC50: 7 ± 2 µM
A2780 cells [2]
  mitochondrial ROS (mROS) vs non-treated cells: did not affect mROS
Human fibroblasts (HF); 24h
  EC50: 35.5 ± 14.9 µM
Human fibroblasts (HF); 48h
  EC50: 20.8 ± 4.6 µM
BL-2 cells; BL-2, 48 h incubation
  IC50: 5 ± 2 µM
BL-2 cells; BL-2, 96 h incubation
  IC50: 5 ± 3 µM

## CCOC(=O)CCCCCn1cc(CN(C(=O)OCc2ccc(B3OC(C)(C)C(C)(C)O3)cc2)[c-]2cccc2)nn1.[Fe+2].c1cc[cH-]c1 [compound 1]
A2780 cells [1]; A2780, 48 h incubation
  IC50: 32 ± 3 µM
A2780 cells [1]; A2780, 96 h incubation
  IC50: 30 ± 5 µM
A2780 cells [2]
  mitochondrial ROS (mROS) vs non-treated cells: substantially weaker
BL-2 cells; BL-2, 48 h incubation
  IC50: 35 ± 2 µM
BL-2 cells; BL-2, 96 h incubation
  IC50: 16.9 µM and 17 µM

## [Fe+2].c1cc[cH-]c1.c1cc[cH-]c1 [compound 6, ferrocene]
A2780 cells [1]; A2780, 24 h incubation
  IC50: > 100 µM
A2780 cells [1]; A2780, 48 h incubation
  IC50: > 100 µM
A2780 cells [1]; A2780, 96 h incubation
  IC50: > 100 µM
Human fibroblasts (HF); 24h
  EC50: > 50 µM
Human fibroblasts (HF); 48h
  EC50: > 50 µM
BL-2 cells; BL-2, 48 h incubation
  IC50: > 100 µM
BL-2 cells; BL-2, 96 h incubation
  IC50: > 100 µM
